Biological target: T1, BRM (Homo sapiens, UniProt P51531)
T1 construct: In-Cell Western Screen of BRM Degradation in SW1573 Cells; endogenous in cells; host or cells: SW1573
Experiment: In-cell Western screen of BRM degradation in SW1573 cells (Dmax and DC50)
Assay type: cell-based
Conditions: BRM degradation, SW1573 cells; for DC50: read-out: DC50; for Dmax: tested at the top concentration of between 0.3 and 10 μM, read-out: Dmax (%) (% degraded)
In short: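 BRM levels were read by LI-COR in-cell Western after two-channel (800/680 nm) immunostaining of fixed, Triton-permeabilised SW1573 cells.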

T1 sequence (P51531 whole entry): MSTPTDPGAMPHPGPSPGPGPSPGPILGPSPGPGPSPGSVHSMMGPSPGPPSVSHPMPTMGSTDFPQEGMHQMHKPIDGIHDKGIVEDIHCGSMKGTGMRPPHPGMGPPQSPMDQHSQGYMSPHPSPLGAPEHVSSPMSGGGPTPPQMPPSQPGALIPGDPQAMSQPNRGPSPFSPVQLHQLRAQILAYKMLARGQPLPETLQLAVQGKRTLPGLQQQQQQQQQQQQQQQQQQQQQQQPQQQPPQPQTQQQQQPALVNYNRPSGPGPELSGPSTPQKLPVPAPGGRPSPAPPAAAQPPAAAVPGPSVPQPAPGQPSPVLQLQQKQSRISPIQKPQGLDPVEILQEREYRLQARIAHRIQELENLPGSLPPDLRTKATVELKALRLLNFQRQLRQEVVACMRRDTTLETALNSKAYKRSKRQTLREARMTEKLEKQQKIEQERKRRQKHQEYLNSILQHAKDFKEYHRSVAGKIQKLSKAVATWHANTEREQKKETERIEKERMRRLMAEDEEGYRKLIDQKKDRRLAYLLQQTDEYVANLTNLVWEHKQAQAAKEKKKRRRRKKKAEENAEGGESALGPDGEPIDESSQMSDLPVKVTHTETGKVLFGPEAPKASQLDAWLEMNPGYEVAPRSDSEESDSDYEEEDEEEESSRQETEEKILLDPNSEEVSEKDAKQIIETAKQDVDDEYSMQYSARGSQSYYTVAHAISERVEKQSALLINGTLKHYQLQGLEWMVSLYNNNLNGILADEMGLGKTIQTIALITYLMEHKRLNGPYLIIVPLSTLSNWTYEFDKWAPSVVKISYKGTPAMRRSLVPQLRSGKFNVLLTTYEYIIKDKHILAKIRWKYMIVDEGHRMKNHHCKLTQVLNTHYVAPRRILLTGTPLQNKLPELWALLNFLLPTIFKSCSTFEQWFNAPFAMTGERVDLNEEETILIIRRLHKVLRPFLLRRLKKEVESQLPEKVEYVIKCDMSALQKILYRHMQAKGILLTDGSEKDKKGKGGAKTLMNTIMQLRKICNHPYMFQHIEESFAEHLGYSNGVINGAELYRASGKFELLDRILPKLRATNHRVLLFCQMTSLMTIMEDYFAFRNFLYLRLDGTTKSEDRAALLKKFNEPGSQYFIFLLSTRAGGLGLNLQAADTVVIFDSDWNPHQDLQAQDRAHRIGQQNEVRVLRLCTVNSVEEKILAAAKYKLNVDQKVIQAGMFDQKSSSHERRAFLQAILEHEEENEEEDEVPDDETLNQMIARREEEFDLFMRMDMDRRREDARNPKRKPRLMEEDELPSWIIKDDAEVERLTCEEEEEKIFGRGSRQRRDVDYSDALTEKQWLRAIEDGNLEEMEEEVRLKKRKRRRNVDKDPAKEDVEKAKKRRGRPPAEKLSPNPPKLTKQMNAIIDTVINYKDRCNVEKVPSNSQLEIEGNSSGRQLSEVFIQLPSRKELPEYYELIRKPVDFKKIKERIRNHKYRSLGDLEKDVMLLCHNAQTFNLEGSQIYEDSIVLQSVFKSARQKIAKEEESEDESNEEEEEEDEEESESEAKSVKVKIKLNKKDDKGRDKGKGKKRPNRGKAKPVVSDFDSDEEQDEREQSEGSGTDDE

SMILES	DC50 [nM]	Dmax [%]
Cc1ncoc1-c1ccc([C@H](C)NC(=O)[C@@H]2C[C@@H](O)CN2C(=O)[C@@H](c2cc(OCCN3CCN(CCOc4cc(N5C6CCC5CN(c5cc(-c7ccccc7O)nnc5N)C6)ccn4)CC3)no2)C(C)C)cc1 [compound 300, (2S,4R)-1-((2R)-2-(3-(2-(4-(2-((4-(3-(3-amino-6-(2-hydroxyphenyl)pyridazin-4-yl)-3,8-diazabicyclo[3.2.1]octan-8-yl)pyridin-2-yl)oxy)ethyl)piperazin-1-yl)ethoxy)isoxazol-5-yl)-3-methylbutanoyl)-4-hydroxy-N-((S)-1-(4-(4-methyloxazol-5-yl)phenyl)ethyl)pyrrolidine-2-carboxamide]	< 2.5	> 75
Cc1cc([C@@H](C(=O)N2C[C@H](O)C[C@H]2C(=O)N[C@@H](C)c2ccc(-c3scnc3C)cc2)[C@@H](C)COCCOc2cc(N3C4CCC3CN(c3cc(-c5ccccc5O)nnc3N)C4)ccn2)on1 [compound 301, (2S,4R)-1-((2S,3R)-4-(2-((4-(3-(3-amino-6-(2-hydroxyphenyl)pyridazin-4-yl)-3,8-diazabicyclo[3.2.1]octan-8-yl)pyridin-2-yl)oxy)ethoxy)-3-methyl-2-(3-methylisoxazol-5-yl)butanoyl)-4-hydroxy-N-((S)-1-(4-(4-methylthiazol-5-yl)phenyl)ethyl)pyrrolidine-2-carboxamide]	2.5 to 10	> 75
Cc1cc([C@H](C(=O)N2C[C@H](O)C[C@H]2C(=O)N[C@@H](C)c2ccc(-c3scnc3C)cc2)[C@@H](C)COCCOc2cc(N3C4CCC3CN(c3cc(-c5ccccc5O)nnc3N)C4)ccn2)on1 [compound 302, (2S,4R)-1-((2R,3R)-4-(2-((4-(3-(3-amino-6-(2-hydroxyphenyl)pyridazin-4-yl)-3,8-diazabicyclo[3.2.1]octan-8-yl)pyridin-2-yl)oxy)ethoxy)-3-methyl-2-(3-methylisoxazol-5-yl)butanoyl)-4-hydroxy-N-((S)-1-(4-(4-methylthiazol-5-yl)phenyl)ethyl)pyrrolidine-2-carboxamide]	10 to 30	> 75
CC[C@H](NC(=O)[C@@H]1C[C@@H](O)CN1C(=O)[C@H](c1cc(OCCN2CCC(O[C@H]3C[C@H](Oc4cc(N5C6CCC5CN(c5cc(-c7ccccc7O)nnc5N)C6)ccn4)C3)CC2)no1)C(C)C)c1ccc(-c2scnc2C)cc1 [compound 350, (2S,4R)-1-((2S)-2-(3-(2-(4-((1r,3S)-3-((4-(3-(3-amino-6-(2-hydroxyphenyl)pyridazin-4-yl)-3,8-diazabicyclo[3.2.1]octan-8-yl)pyridin-2-yl)oxy)cyclobutoxy)piperidin-1-yl)ethoxy)isoxazol-5-yl)-3-methylbutanoyl)-4-hydroxy-N-((S)-1-(4-(4-methylthiazol-5-yl)phenyl)propyl)pyrrolidine-2-carboxamide]	> 30	
CC[C@H](NC(=O)[C@@H]1C[C@@H](O)CN1C(=O)C(c1cc(OCCN2CCC(O[C@H]3C[C@H](Oc4cc(N5C6CCC5CN(c5cc(-c7ccccc7O)nnc5N)C6)ccn4)C3)CC2)no1)C(C)C)c1ccc(-c2scnc2C)cc1 (stereo partly drawn) [compound 351, (2S,4R)-1-((2R)-2-(3-(2-(4-((1r,3R)-3-((4-(3-(3-amino-6-(2-hydroxyphenyl)pyridazin-4-yl)-3,8-diazabicyclo[3.2.1]octan-8-yl)pyridin-2-yl)oxy)cyclobutoxy)piperidin-1-yl)ethoxy)isoxazol-5-yl)-3-methylbutanoyl)-4-hydroxy-N-((S)-1-(4-(4-methylthiazol-5-yl)phenyl)propyl)pyrrolidine-2-carboxamide]	< 2.5	> 75
